Source: publication PMC11387175, “Model informed dose regimen optimizing in development of leritrelvir for the treatment of mild or moderate COVID-19” (Frontiers in Pharmacology, 2024)

Legend:
Omicron variant = assay: Target concentration needed to achieve EC90; format: cell-based, SARS-CoV-2
[1] = tested on: Omicron XBB.1.9.1 variant; parameters: method as in Chen et al., 2024; settings: ref Chen et al., 2024, read-out: concentration for 90% of maximal effect (EC90); cited from earlier work

SMILES: O=C(NC1CCCC1)C(=O)[C@H](C[C@@H]1CCNC1=O)NC(=O)[C@@H]1[C@H]2CCC[C@H]2CN1C(=O)[C@@H](NC(=O)C(F)(F)F)C1CCCCC1 [leritrelvir]
- concentration needed to achieve EC90 (Omicron variant): 0.2097 µg/mL
- EC90 [1]: 415 nM
